Measurements taken from patent publication EP1207395A1, “METHOD FOR MEASURING KINASE ACTIVITY OF CYCLIN/CDK COMPLEX” (Medical & Biological Laboratories Co., Ltd., priority 1999, dated 2001).

Key:
[1] = biological target: cdk2 (Homo sapiens, UniProt P24941); details: against CDK2; nominal value; cited from earlier work
[2] = biological target: T1, cyclin D1/CDK4 complex (Homo sapiens, UniProt P11802); test: ELISA method, inhibitory effect on cyclin D1/CDK4 complex; type: biochemical; details: for OD levels (inhibitory effect): RB301 substrate, 100 µM ATP, Figs. 5 and 9
T1 construct: 6xHis (N); made in house; host or cells: Sf9 insect cells (baculovirus)
Procedure: (§1) Clone 1C12 (specific to Thr356), clone 4E4 (specific to Ser612), and clone 2C4 (specific to Ser780) were used as the anti-phosphorylated RB monoclonal antibodies. Each anti-phosphorylated RB monoclonal antibody was diluted to a concentration of 10 µg/ml in PBS, and 100 µl of the diluted solution was added to each well of the plate followed by incubating at 4 °C for 15 hours. After removing the antibody solution, the reaction product in each well was blocked at 4°C for 24 hours in a PBS solution (5% sucrose, 0.1% NaN3) containing 2.5% of BSA. The plate was subjected to measurements after airdrying.
The RB amino acid sequence 301aa-928aa was expressed as a GST fusion protein in Escherichia coli, and the protein (RB301) purified using glutathione Sepharose and phosho-Cellulose columns (P11) was used as the substrate. Cyclin D1/CDK4, cyclin A/CDK2, cyclin E/CDK2, and cyclin B/CDK1, respectively, were expressed in the sf9 cells using baculovirus, and were purified using a cobalt column and phospho-Cellulose column in order to use them as the cyclin/CDK complexes.
(§2) RB301 (10µg/ml), 100µM ATP, and respective Cyclin/CDK were added to the phosphate buffer (50 mM HEPES, 0.05% Triton X, 15 mM MgCl2, 2 mM EGTA, 200 µg/ml BSA) (final reaction volume of 180 µl), and was reacted for 30 minutes at 30°C. The reaction was stopped by adding 180 µl of PBS (10% skim milk, 350 mM NaCl, 50 mM EDTA) to each assay system.
After completing the phosphorylation reaction, 100 µl of each of the reaction solutions was added to the antibody sensitization plate, which was incubated at room temperature for 1 hour (primary reaction). After washing with PBS [washing solution: PBS (500 mM NaCl, 0.1% Tween 20)] five times using a wash-bottle, 100 µl of anti-GST polyclonal antibody solution (0.5 µg/ml) was added to each well of the microplate, followed by incubation at room temperature for 1 hour (secondary reaction). After washing with PBS [washing solution: PBS (500 mM NaCl, 0.1% Tween 20)] five times using a wash-bottle, 100 µl of HRP labeled anti-rabbit IgG antibody solution (20,000-fold dilution) was added to each well of the microplate, followed by incubation at room temperature for 30 minutes (tertiary reaction). Then, the reaction solution was colored (coloring reaction) at room temperature for 30 minutes using TMB (tetramethylbentidine).

[3] = biological target: T2, cyclin A/CDK2 complex (Homo sapiens, UniProt P24941); test: ELISA method, inhibitory effect on cyclin A/CDK2 complex; type: biochemical; details: RB301 substrate, 100 µM ATP, Figs. 3 and 7
T2 construct: 6xHis (N); made in house; host or cells: Sf9 insect cells (baculovirus)
Procedure: as §1
(§3) Cyclin D1/CDK4, cyclin A/CDK2, cyclin E/CDK2, and cyclin B/CDK1, respectively, were expressed in the sf9 cells using baculovirus, and were purified using a cobalt column and phospho-Cellulose column in order to use them as the cyclin/CDK complexes.
as §2
(§4) After completing the phosphorylation reaction, 100 µl of each of the reaction solutions was added to the antibody sensitization plate, which was incubated at room temperature for 1 hour (primary reaction). […]

[4] = biological target: T3, cyclin E/CDK2 complex (Homo sapiens, UniProt P24941); test: ELISA method, inhibitory effect on cyclin E/CDK2 complex; type: biochemical; details: RB301 substrate, 100 µM ATP, Figs. 4 and 8
T3 construct: 6xHis (N); made in house; host or cells: Sf9 insect cells (baculovirus)
Procedure: as §1, §3, §2, §4

[5] = biological target: T4, CDK4 (Homo sapiens, UniProt P11802); details: against CDK4; nominal value; cited from earlier work
[6] = test system: MEK; details: inhibitor to MEK; nominal value of commercially available reagent; cited from earlier work
[7] = biological target: T4, CDK4; details: reported in the literature (Meijer et al. 1997); cited from earlier work
[8] = biological target: T5, cyclin B/CDK1 complex (Homo sapiens, UniProt P06493); type: biochemical; details: ELISA method; RB301 substrate, 100 µM ATP; Figs. 2 and 6
T5 construct: 6xHis (N); made in house; host or cells: Sf9 insect cells (baculovirus)
Procedure: as §1, §3, §2, §4

[9] = biological target: PKC; details: against PKC; nominal value of commercially available reagent; cited from earlier work

T1 sequence (P11802 whole entry): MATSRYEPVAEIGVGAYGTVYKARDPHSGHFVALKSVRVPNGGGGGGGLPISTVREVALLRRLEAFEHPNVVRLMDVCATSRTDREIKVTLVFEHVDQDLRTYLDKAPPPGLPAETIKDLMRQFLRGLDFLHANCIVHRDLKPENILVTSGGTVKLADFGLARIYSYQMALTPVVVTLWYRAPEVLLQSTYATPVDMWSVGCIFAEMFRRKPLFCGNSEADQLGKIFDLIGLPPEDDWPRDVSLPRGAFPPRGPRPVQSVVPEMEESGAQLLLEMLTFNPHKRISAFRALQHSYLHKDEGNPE
T1 sequence (P24385 whole entry partner): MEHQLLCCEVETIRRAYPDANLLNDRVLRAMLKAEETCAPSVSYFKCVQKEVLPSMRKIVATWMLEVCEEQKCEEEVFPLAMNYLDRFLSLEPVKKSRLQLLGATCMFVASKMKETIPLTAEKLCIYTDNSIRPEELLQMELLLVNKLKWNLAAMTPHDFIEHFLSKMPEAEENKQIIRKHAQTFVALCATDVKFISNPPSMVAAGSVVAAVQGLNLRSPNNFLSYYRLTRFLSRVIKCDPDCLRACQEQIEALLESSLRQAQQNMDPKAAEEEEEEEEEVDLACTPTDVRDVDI
T4 sequence (P11802 whole entry, species assumed): as the sequence (P11802 whole entry) above
T4 sequence (P24385 whole entry partner, species assumed): as the sequence (P24385 whole entry partner) above
T5 sequence (P06493 whole entry): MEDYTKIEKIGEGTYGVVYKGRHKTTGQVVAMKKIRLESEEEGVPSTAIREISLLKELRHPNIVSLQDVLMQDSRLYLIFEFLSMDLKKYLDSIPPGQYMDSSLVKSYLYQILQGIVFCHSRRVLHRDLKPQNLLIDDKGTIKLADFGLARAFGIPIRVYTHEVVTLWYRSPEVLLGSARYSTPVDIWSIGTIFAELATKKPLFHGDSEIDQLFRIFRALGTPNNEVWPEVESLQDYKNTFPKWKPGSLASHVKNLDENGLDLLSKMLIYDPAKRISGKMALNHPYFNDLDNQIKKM
T5 sequence (P14635 whole entry partner): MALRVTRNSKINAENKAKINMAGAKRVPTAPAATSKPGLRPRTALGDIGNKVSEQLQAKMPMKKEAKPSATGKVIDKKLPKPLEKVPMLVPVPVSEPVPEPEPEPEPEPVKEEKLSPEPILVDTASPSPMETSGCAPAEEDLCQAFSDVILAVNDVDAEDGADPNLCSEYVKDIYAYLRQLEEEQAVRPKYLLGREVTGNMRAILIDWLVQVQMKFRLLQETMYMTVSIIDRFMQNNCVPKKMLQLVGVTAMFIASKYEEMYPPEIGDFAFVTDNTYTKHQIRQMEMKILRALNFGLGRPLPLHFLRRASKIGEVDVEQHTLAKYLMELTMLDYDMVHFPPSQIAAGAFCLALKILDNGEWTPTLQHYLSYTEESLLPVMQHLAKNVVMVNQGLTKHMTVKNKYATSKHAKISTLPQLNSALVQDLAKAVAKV

| SMILES | IC50 [1] [nM] | OD levels (inhibitory effect) [2] | OD levels (inhibitory effect) [3] | OD levels (inhibitory effect) [4] | IC50 [5] [nM] | IC50 [6] [nM] | inhibitory effect on cdk4 [7] | inhibitory effect on cyclin D1/CDK4 compared with the other three cyclin/CDK complexes [2] | OD levels (inhibitory effect) [8] | Ki [9] [nM] |
| --- | --- | --- | --- | --- | --- | --- | --- | --- | --- | --- |
| N#CC(=C(/N)Sc1ccccc1N)/C(C#N)=C(\N)Sc1ccccc1N [U0126] | > 10000 | almost no decrease in the OD value | almost no decrease in the OD value | almost no decrease in the OD value | > 10000 | 55 | – | – | – | – |
| Cn1cnc2nc(NCCO)nc(NCc3ccccc3)c21 [Olomoucine-isomer] | – | almost no decrease in the OD value | – | – | – | – | – | – | – | – |
| CC[C@H](CO)Nc1nc(NCc2ccccc2)c2ncn(C(C)C)c2n1 [Roscovitine] | – | decreased in a inhibitor concentration-dependent manner | – | – | – | – | remarkably weak inhibitory effect | weaker than those on the other three cyclin/CDK complexes | – | – |
| COC(=O)[C@@]1(O)C[C@H]2O[C@]1(C)n1c3ccccc3c3c4c(c5c6ccccc6n2c5c31)C(=O)NC4 [K252a] | – | decreased in a inhibitor concentration-dependent manner | decreased in a inhibitor concentration-dependent manner | decreased in a inhibitor concentration-dependent manner | – | – | – | – | decreased in a inhibitor concentration-dependent manner | 25 |
